# From patent publication US11506654B2, “Method, composition and kit for screening ALK or ROS-1 kinase inhibitor” (KOREA INSTITUTE OF SCIENCE AND TECHNOLOGY, priority 2018, dated 2022)
# Key:
# Format in all cases: cell-based
# HCC-78 cells = assay: WST-1 assay, cell growth inhibitory effect on lung carcinoma cell line (HCC-78); conditions: for inhibition of growth of HCC-78 cells (in words): 1 μM, 24, 48 and 72 hours, Student's t-test, p<0.05; for growth rate of HCC-78 cells (control group = 100%): 1 μM
# Description: Specifically, HCC-78 lung cancer cells deposited under an accession number of KCTC13642BP on Sep. […] At this time, DMSO (dimethyl sulfoxide) was added to a control group in an amount to be 0.01% of the total medium, 1 μM doxorubicin was added to a positive control group, and then these control group and positive control group were cultured for 24, 48, and 72 hours, respectively. In addition, the experiment was conducted using an A549 cell line instead of the HCC cell line as a negative control group. The A549 cell line is a kRAS mutant cell line and is also a cell line which is not involved in the overexpression of ALK and ROS-1.
# When each of the culture times passed after drug treatment, the WST-1 reagent was added to each medium in an amount to be 10% of the medium, the cells were cultured for 1 hour, and then the absorbance of cells was measured at 470 nm by using an ELISA instrument.
# HCC-78 cell line = assay: Change in metabolites in HCC-78 cell line after ALK/ROS-1 kinase inhibitor treatment, UHPLC-MS; conditions: HCC-78, 1 μM, 24 hours, n=5
# Description: HCC-78 lung cancer cells were cultured in a 5% carbon dioxide cell incubator at a temperature of 37° C. using a RPMI medium containing 10% fetal bovine serum and 1% antibiotic. […] At this time, as a control group, DMSO (dimethyl sulfoxide) was added to the cells in an amount to be 0.01% of the total medium, and the cells were cultured for 24 hours. Each cell was cultured in 5 cell dishes for each group so that the total number of experiments for each group was 5 (n=5).
# After the culture time of 24 hours had elapsed, the medium was removed, and the cells were washed two times with PBS (phosphate buffered saline). The cells were then acquired from the culture dish using a cell scraper, put in a tube, and stored at −80° C.
# (§1) Thereafter, a process in which the mixed solution was frozen using liquid nitrogen, dissolved in water at room temperature, and then sonicated for 30 seconds was repeated three times to destroy the cells. Thereafter, the resultant mixed solution was subjected to centrifugation at 14000 rpm for 10 minutes, and only the supernatant was separated from this. At this time, DNA quantitation was conducted in order to correct the cell volume of the intracellular fluid extract acquired according to the series of procedures. DNA quantitation was conducted by mixing the extract with water at a ratio of 1:3, putting 5 μL of the mixture in a cuvette, and measuring the quantity at 260 nm by using a spectrophotometer Nano-MD of SHINKO CO., LTD.
# (§2) Specifically, 10 μL of the acquired sample was injected into the ultra-high-performance liquid chromatography system-mass spectrometer, and the temperature of the injector was maintained at 4° C. […]
# (§3) Specifically, Excel raw data attained by conducting calibration and peak alignment using the compound discovery software of Thermo Fisher Scientific Inc. was extracted from the chromatogram. […] The extracted file was first divided by the internal standard substance and corrected using DNA quantitation of cells, and statistical processing was conducted using SIMCA software. […]
# MCF-7 cell line = assay: Change in metabolites in MCF-7 cell line after crizotinib treatment, UHPLC-MS; conditions: MCF-7, 1 μM, 12 hours, n=5
# Description: MCF-7 breast cancer cells were cultured in a 5% carbon dioxide cell incubator at a temperature of 37° C. using a DMEM medium containing 10% fetal bovine serum and 1% antibiotic. […] At this time, as a control group, DMSO was added to the cells in an amount to be 0.01% of the total medium, and the cells were cultured for 12 hours. Each cell was cultured in 5 cell dishes for each group so that the total number of experiments for each group was 5 (n=5).
# After the culture time of 12 hours had elapsed, the medium was removed, and the cells were washed two times with PBS. The cells were then acquired from the culture dish using a cell scraper, put in a tube, and stored at −80° C.
# as §1, §2, §3
# [1] = test system: MCF-7 breast cancer cells; assay: MTT assay, cell viability of breast cancer cell line (MCF-7); conditions: 1 μM, 72 hours
# Description: Specifically, MCF-7 breast cancer cells deposited under an accession number of KCTC13643BP on Sep. […] At this time, DMSO (dimethyl sulfoxide) was added to a control group in an amount to be 0.01% of the total medium, 1 μM paclitaxel was added to a positive control group, and then these control group and positive control group were cultured for 72 hours.
# When each of the culture times passed after drug treatment, the supernatant of each medium was removed, the MTT reagent was added to the fresh medium so as to be 0.5 mg/ml, the cells were cultured for 3 hours, then the supernatant was removed again, and then the medium was reconstituted with 100 μL of DMSO. Thereafter, the absorbance of cells was measured at 590 nm by using an ELISA instrument.
structure (smiles),measurement,setting,value
Cc1cc(Nc2ncc(Cl)c(Nc3ccccc3S(=O)(=O)C(C)C)n2)c(OC(C)C)cc1C1CCNCC1 [ceritinib],inhibition of growth of HCC-78 cells (in words),HCC-78 cells,"significantly inhibited, particularly time dependently inhibited the growth of HCC-78 cells"
same,growth rate of HCC-78 cells (control group = 100%),HCC-78 cells; 24 hours after treatment,73.73%
same,growth rate of HCC-78 cells (control group = 100%),HCC-78 cells; 48 hours after treatment,37.17%
same,growth rate of HCC-78 cells (control group = 100%),HCC-78 cells; 72 hours after treatment,17.99%
same,AMP increase as compared with control group,HCC-78 cell line,188.21%
same,adenosine decrease as compared with control group,HCC-78 cell line,95.31%
same,cAMP decrease as compared with control group,HCC-78 cell line,66.78%
C[C@@H](Oc1cc(-c2cnn(C3CCNCC3)c2)cnc1N)c1c(Cl)ccc(F)c1Cl [crizotinib],AMP increase,MCF-7 cell line,82.91%
same,adenosine decrease,MCF-7 cell line,32.07%
same,cAMP decrease,MCF-7 cell line,28.6%
same,inhibition of growth of HCC-78 cells (in words),HCC-78 cells,"significantly inhibited, particularly time dependently inhibited the growth of HCC-78 cells"
COc1cccc2c1C(=O)c1c(O)c3c(c(O)c1C2=O)C[C@@](O)(C(=O)CO)C[C@@H]3O[C@H]1C[C@H](N)[C@H](O)[C@H](C)O1 [doxorubicin],growth rate of HCC-78 cells (control group = 100%),HCC-78 cells; 24 hours after treatment,57.65%
CC(C)(C)c1nc(-c2cccc(NS(=O)(=O)c3c(F)cccc3F)c2F)c(-c2ccnc(N)n2)s1 [dabrafenib],inhibition of cell growth of MCF-7 cell line (in words),"[1]; Student's t-test, p value <0.05",5 kinds of kinase inhibitors except dabrafenib significantly inhibited
CC(=O)O[C@H]1C(=O)[C@@]2(C)[C@H]([C@H](OC(=O)c3ccccc3)[C@]3(O)C[C@H](OC(=O)[C@H](O)[C@@H](NC(=O)c4ccccc4)c4ccccc4)C(C)=C1C3(C)C)[C@]1(OC(C)=O)CO[C@@H]1C[C@@H]2O [paclitaxel],cell growth rate of MCF-7 as compared with control group,[1],46.86%
